Test results reported in ChEMBL document CHEMBL1201862, “PubChem BioAssay data set” (2004).
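Step 1: Grow cells in 96-well plates. Step 2: Expose to compound for 48 hours at 5 concentrations. Step 3: Interpolate endpoints linearly; if unreached, use highest concentration. At the GI50, growth is halved.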 Calls of active or inactive are those of the source. Cut-off read from the data, not from the text of the source: active = GI50 up to about 1.1 µM and inactive = higher.

Key:
Test in all cases: inhibition of tumour cell growth, NCI panel, 48 h
A549 = system: A549
ACHN = system: ACHN
CAKI-1 = system: CAKI-1
HCC 2998 = system: HCC 2998
LOX IMVI = system: LOX IMVI
MOLT-4 = system: MOLT-4
NCI-H460 = system: NCI-H460
NCI-H522 = system: NCI-H522
OVCAR-8 = system: OVCAR-8
SK-MEL-28 = system: SK-MEL-28
SK-MEL-2 = system: SK-MEL-2
SK-MEL-5 = system: SK-MEL-5
UO-31 = system: UO-31
A498 = system: A498
HOP-92 = system: HOP-92
SR = system: SR

Measured: GI50

O=C(O)[C@H](NS(=O)(=O)c1ccc(F)cc1)c1ccccc1
inactive: A549 > 100 µM | ACHN > 100 µM | CAKI-1 > 100 µM | HCC 2998 > 100 µM | LOX IMVI > 100 µM | MOLT-4 > 100 µM | NCI-H460 > 100 µM | NCI-H522 > 100 µM | OVCAR-8 > 100 µM | SK-MEL-28 > 100 µM | SK-MEL-2 > 100 µM | SK-MEL-5 > 100 µM | UO-31 > 100 µM

COc1ccc(NC(=O)/C(=C/c2ccccc2)C(C)=O)cc1
inactive: A498 21.1 µM | A549 22.2 µM | ACHN 20.7 µM | CAKI-1 15.4 µM | HCC 2998 18.9 µM | HOP-92 15.8 µM | LOX IMVI 10.7 µM | MOLT-4 11.4 µM | NCI-H460 21.6 µM | NCI-H522 1.73 µM | OVCAR-8 18.1 µM | SK-MEL-28 12.9 µM | SK-MEL-2 14.6 µM | SK-MEL-5 13.9 µM | UO-31 15.4 µM

CC12CC(=O)NN=C1c1ccccc1C2 (centres undefined)
inactive: A498 > 100 µM | A549 > 100 µM | ACHN > 100 µM | CAKI-1 > 100 µM | HCC 2998 > 100 µM | LOX IMVI > 100 µM | MOLT-4 > 100 µM | NCI-H460 > 100 µM | NCI-H522 > 100 µM | OVCAR-8 > 100 µM | SK-MEL-28 > 100 µM | SK-MEL-2 > 100 µM | SK-MEL-5 > 100 µM | UO-31 > 100 µM

COC(=O)C(=NNc1ccccc1[N+](=O)[O-])C(=O)OC
inactive: A498 > 100 µM | A549 > 100 µM | ACHN > 100 µM | CAKI-1 > 100 µM | HCC 2998 > 100 µM | HOP-92 24.1 µM | LOX IMVI > 100 µM | MOLT-4 > 100 µM | NCI-H460 > 100 µM | NCI-H522 > 100 µM | OVCAR-8 > 100 µM | SK-MEL-28 > 100 µM | SK-MEL-2 > 100 µM | SR > 100 µM

Cc1nc2ccccc2nc1CC(=O)C(=O)Nc1ccc(Cl)cc1Cl
inactive: A498 > 100 µM | A549 > 100 µM | ACHN > 100 µM | CAKI-1 > 100 µM | HCC 2998 > 100 µM | HOP-92 > 100 µM | LOX IMVI > 100 µM | MOLT-4 > 100 µM | NCI-H460 > 100 µM | NCI-H522 57.4 µM | OVCAR-8 > 100 µM | SK-MEL-28 > 100 µM | SK-MEL-2 > 100 µM | SK-MEL-5 > 100 µM | UO-31 > 100 µM

CC1OC(OC2C(CO)OC(O[C@H]3CC[C@@]4(C)C(=CC[C@H]5[C@@H]6C[C@@H]7O[C@]8(CC[C@@H](C)CN8)[C@@H](C)[C@@H]7[C@@]6(C)CC[C@@H]54)C3)C(O)C2O)C(O)C(O)C1O (some centres undefined)
inactive: A498 > 100 µM | A549 > 100 µM | ACHN > 100 µM | CAKI-1 > 100 µM | HOP-92 31.7 µM | LOX IMVI > 100 µM | MOLT-4 > 100 µM | NCI-H460 > 100 µM | NCI-H522 70.6 µM | OVCAR-8 > 100 µM | SK-MEL-28 31.8 µM | SK-MEL-2 > 100 µM | SK-MEL-5 > 100 µM | UO-31 > 100 µM

NC(=O)c1c(-c2ccccc2)c(-c2ccccc2)cc2c(=O)c3ccccc3[nH]c12
inactive: A498 19.4 µM | A549 23.8 µM | ACHN 16.4 µM | HCC 2998 43.2 µM | HOP-92 24.9 µM | LOX IMVI 45.5 µM | MOLT-4 16.4 µM | NCI-H460 22.2 µM | NCI-H522 5.85 µM | OVCAR-8 20.8 µM | SK-MEL-28 17.8 µM | SK-MEL-2 19.9 µM | SK-MEL-5 13.7 µM | UO-31 33.7 µM

COc1cc2cccc(/N=C\c3cccc(OC)c3OC(C)C)c2cc1OC
inactive: A498 56.9 µM | A549 29.7 µM | ACHN 36.6 µM | CAKI-1 24 µM | HCC 2998 35.9 µM | MOLT-4 19.1 µM | NCI-H460 33.9 µM | NCI-H522 17.9 µM | OVCAR-8 21.5 µM | SK-MEL-28 24.3 µM | SK-MEL-2 18 µM | SK-MEL-5 24.8 µM | UO-31 30.1 µM

COc1ccc([N+]2=NC(c3ccc([N+](=O)[O-])cc3)=NN(c3ccccc3)C2)cc1
inactive: A498 41.6 µM | A549 71 µM | ACHN 42.5 µM | HCC 2998 > 100 µM | LOX IMVI 30.1 µM | MOLT-4 21.6 µM | NCI-H460 25.9 µM | NCI-H522 2.69 µM | OVCAR-8 > 10 µM | SK-MEL-28 70.8 µM | SK-MEL-5 21 µM | SR 32.9 µM | UO-31 26.9 µM

NC(=S)N/N=C(/CCN1CCCC1)CC(C1=C(O)C2=CCCCC2OC1=O)c1ccccc1 (centres undefined)
inactive: A498 > 100 µM | A549 > 100 µM | ACHN > 100 µM | CAKI-1 > 100 µM | HCC 2998 > 100 µM | HOP-92 32.3 µM | LOX IMVI > 100 µM | NCI-H460 > 100 µM | NCI-H522 > 100 µM | OVCAR-8 > 100 µM | SK-MEL-2 > 100 µM | SK-MEL-5 > 100 µM | SR 70 µM | UO-31 > 100 µM

Cc1cccc(-n2c(N)c(-c3nc4ccccc4[nH]3)sc2=S)c1
inactive: A498 89.3 µM | A549 28.2 µM | ACHN 23.9 µM | CAKI-1 47.4 µM | HCC 2998 > 10 µM | LOX IMVI 26.8 µM | MOLT-4 20.6 µM | NCI-H522 25.6 µM | OVCAR-8 28.4 µM | SK-MEL-28 37 µM | SK-MEL-2 23.7 µM | SK-MEL-5 20.9 µM | UO-31 33 µM

COc1ccc(C2C(C(=O)O)=C(CO)Oc3cc4c(cc32)OCO4)c(OC)c1 (centres undefined)
inactive: A549 70.3 µM | ACHN 63.1 µM | CAKI-1 88.1 µM | HOP-92 > 100 µM | LOX IMVI 45.1 µM | MOLT-4 22.5 µM | NCI-H460 > 100 µM | OVCAR-8 98.4 µM | SK-MEL-28 46.2 µM | SK-MEL-5 42.8 µM | UO-31 36.9 µM

N=C(N)NS(=O)(=O)c1ccc(NC(=O)c2cccc3cc4ccccc4nc23)cc1
inactive: A498 > 100 µM | A549 > 100 µM | ACHN 93.8 µM | CAKI-1 > 100 µM | LOX IMVI 51.5 µM | MOLT-4 5.55 µM | NCI-H460 > 100 µM | NCI-H522 13.5 µM | OVCAR-8 14.5 µM | SK-MEL-28 > 100 µM | SK-MEL-2 > 100 µM | SK-MEL-5 > 100 µM | UO-31 > 100 µM

O=C(Nc1ccc([N+](=O)[O-])cc1[N+](=O)[O-])C(=O)C(C(=O)c1ccc(Cl)c(Cl)c1)C1OC(=O)c2ccccc21 (centres undefined)
inactive: A498 21.4 µM | A549 26.1 µM | ACHN 23.3 µM | CAKI-1 38 µM | HCC 2998 > 10 µM | HOP-92 1.26 µM | LOX IMVI 17.5 µM | MOLT-4 14.6 µM | NCI-H460 > 10 µM | NCI-H522 17.1 µM | OVCAR-8 15.2 µM | SK-MEL-2 > 10 µM | SR 26.5 µM | UO-31 26.3 µM

Nc1c(-c2nc3ccccc3[nH]2)sc(=S)n1-c1ccccc1
inactive: A498 > 100 µM | A549 > 100 µM | ACHN 18.4 µM | CAKI-1 > 100 µM | HCC 2998 > 100 µM | HOP-92 > 100 µM | MOLT-4 16.3 µM | NCI-H460 > 100 µM | NCI-H522 77.3 µM | OVCAR-8 > 100 µM | SK-MEL-28 > 100 µM | SK-MEL-2 > 100 µM | SK-MEL-5 > 100 µM | SR 30.3 µM | UO-31 > 100 µM

O=[N+]([O-])c1ccc(C2=Nn3c(nnc3-c3ccccc3)SC2)o1
inactive: A498 > 100 µM | A549 35.2 µM | ACHN 19.4 µM | CAKI-1 19.9 µM | HCC 2998 18.9 µM | HOP-92 13.2 µM | MOLT-4 24.3 µM | NCI-H460 18.6 µM | OVCAR-8 19.3 µM | SK-MEL-28 29.2 µM | SK-MEL-2 20.9 µM | SK-MEL-5 17.7 µM

Cc1cc2nc3c(=O)[nH]c(=O)nc-3n(CC(O)C(O)C(O)CO)c2cc1N (centres undefined)
inactive: A498 > 100 µM | A549 > 100 µM | ACHN > 100 µM | HCC 2998 > 100 µM | HOP-92 > 100 µM | LOX IMVI > 100 µM | MOLT-4 > 100 µM | NCI-H460 > 100 µM | OVCAR-8 > 100 µM | SK-MEL-28 > 100 µM | SK-MEL-2 > 100 µM | SK-MEL-5 > 100 µM | UO-31 > 100 µM

C/C=N\N1C(=O)c2ccccc2C1=O
inactive: A498 > 100 µM | A549 > 100 µM | ACHN > 100 µM | CAKI-1 > 100 µM | HCC 2998 > 100 µM | HOP-92 > 100 µM | LOX IMVI > 100 µM | MOLT-4 > 100 µM | NCI-H460 > 100 µM | OVCAR-8 > 100 µM | SK-MEL-28 > 100 µM | SK-MEL-2 > 100 µM | SK-MEL-5 > 100 µM | SR > 100 µM | UO-31 > 100 µM

C[N+]1(C)C[C@@H](O)C[C@@H]1C(=O)[O-] [BETONICINE]
inactive: A498 > 100 µM | A549 > 100 µM | ACHN > 100 µM | HCC 2998 > 100 µM | HOP-92 > 100 µM | LOX IMVI > 100 µM | MOLT-4 > 100 µM | NCI-H460 > 100 µM | NCI-H522 > 100 µM | OVCAR-8 > 100 µM | SK-MEL-28 > 100 µM | SK-MEL-2 > 100 µM | SR > 100 µM | UO-31 > 100 µM
